Results taken from US4138554A, “7-[D-α-(4-Hydroxy-1,5-naphthyridine-3-carboxamido)-α-phenyl (and p-hydroxyphenyl)acetamido]-3-carbamoyloxymethyl-3-cephem-4-carboxylic acids” (priority 1977, dated 1979).
Where two headings read alike, the source gives them in different places.

Columns and labels:
S. aureus = test: MIC by serial two-fold agar dilution (Mueller-Hinton agar), S. aureus; format: cell-based; settings: Staphylococcus aureus
Description: (§1) Minimum inhibitory concentrations (MIC) of BB-S520 were determined by serial two-fold agar dilution method using Steers' apparatus on Meuller-Hinton agar plate against 31 test organisms for the primary screening and also against 61 strains of Pseudomonas aeruginosa for the secondary evaluation. The results are shown in Table 1 and Table 2 along with those of BB-S514 and sulbenicillin.
(§2) Minimum inhibitory concentrations (MIC) of cephalosporins in the present study were determined by serial two-fold agar dilution method using Steers' apparatus on Mueller-Hinton agar plate against 31 test organisms for the primary screening and also against 61 strains of Pseudomonas aeruginosa for the secondary evaluation.

E. coli = test: MIC by serial two-fold agar dilution (Mueller-Hinton agar), E. coli; format: cell-based; settings: Escherichia coli
Description: as §1, §2

K. pneumoniae = test: MIC by serial two-fold agar dilution (Mueller-Hinton agar), K. pneumoniae; format: cell-based; settings: Klebsiella pneumoniae
Description: as §1, §2

Klebsiella sp. = test: MIC by serial two-fold agar dilution (Mueller-Hinton agar), Klebsiella sp.; format: cell-based
Description: as §1, §2

E. cloacae = test: MIC by serial two-fold agar dilution (Mueller-Hinton agar), E. cloacae; format: cell-based; settings: Enterobacter cloacae
Description: as §1, §2

P. mirabilis = test: MIC by serial two-fold agar dilution (Mueller-Hinton agar), P. mirabilis; format: cell-based
Description: as §1, §2

P. vulgaris = test: MIC by serial two-fold agar dilution (Mueller-Hinton agar), P. vulgaris; format: cell-based
Description: as §1, §2

P. morganii = test: MIC by serial two-fold agar dilution (Mueller-Hinton agar), P. morganii; format: cell-based
Description: as §1, §2

S. enteritidis = test: MIC by serial two-fold agar dilution (Mueller-Hinton agar), S. enteritidis; format: cell-based
Description: as §1, §2

S. marcescens = test: MIC by serial two-fold agar dilution (Mueller-Hinton agar), S. marcescens; format: cell-based
Description: as §1, §2

P. aeruginosa = test: MIC by serial two-fold agar dilution (Mueller-Hinton agar), P. aeruginosa, primary screening; format: cell-based
Description: as §1, §2

S. aureus Smith = test: Median curative dose in mice, infection with S. aureus Smith; format: in vivo; settings: Staphylococcus aureus, sc; subcutaneous injection in mice, S. aureus Smith, Table 4; read-out: Median Curative Dose (PD50)
Description: (§3) Median Curative Dose in Mgm./Kg.
(§4) Upon Subcutaneous Injection in Mice

E. coli Juhl = test: Median curative dose in mice, infection with E. coli Juhl; format: in vivo; settings: Escherichia coli, sc
Description: as §3, §4

Ps. aeruginosa A9843 = test: Median curative dose in mice, infection with Ps. aeruginosa; format: in vivo; settings: for ED50: Pseudomonas aeruginosa, A9843, sc
Description: as §3, §4

CC1(C)S[C@@H]2[C@H](NC(=O)C(c3ccccc3)S(=O)(=O)O)C(=O)N2[C@H]1C(=O)O (stereo partly shown) [Sulbenicillin, sulbenicillin]
12.5 µg/mL: MIC (S. aureus; S. aureus Smith A15907, Table 6) | MIC (E. coli; E. coli A9435, Table 6, read-out: MIC) | MIC (Klebsiella sp.; Klebsiella) | MIC (Klebsiella sp.; Klebsiella sp. A20452, Table 6) | MIC (E. cloacae; E. cloacae (1st line), Table 1) | MIC (E. cloacae; E. cloacae (3rd line), Table 1) | MIC (E. cloacae; E. cloacae A9656, Table 6) | MIC (E. cloacae; E. cloacae A9659, Table 6) | MIC (P. aeruginosa; P. aeruginosa A15150, Table 6) | MIC (P. aeruginosa; P. aeruginosa A20229, Table 6) | MIC (P. aeruginosa; Pseudomonas aeruginosa)
9.5 mg/kg: ED50 (E. coli Juhl; subcutaneous injection in mice, E. coli Juhl, Table 4, read-out: Median Curative Dose (PD50))
12.5 Mcg./Ml.: MIC (P. aeruginosa; P. aeruginosa (5th line), Table 1)
1.6 µg/mL: MIC (S. aureus; S. aureus Smith (1st line), Table 1, read-out: MIC) | MIC (E. coli; E. coli A10664, Table 6, read-out: MIC) | MIC (E. coli; E. coli Juhl, Table 1, read-out: MIC) | MIC (E. coli; E. coli, unnamed strain (4th E. coli line), Table 1, read-out: MIC) | MIC (S. enteritidis; S. enteritidis A9531, Table 6) | MIC (S. enteritidis; Salmonella enterica, S. enteritidis, Table 1, read-out: MIC)
50 µg/mL: MIC (S. aureus; S. aureus Smith A20701, Table 6, read-out: MIC) | MIC (S. aureus; S. aureus, unnamed strain (6th S. aureus line), Table 1, read-out: MIC)
3.1 µg/mL: MIC (S. aureus; S. aureus BX-1633, Table 1, read-out: MIC) | MIC (S. aureus; S. aureus BX-1633 A9606, Table 6, read-out: MIC) | MIC (S. aureus; S. aureus Smith A9537, Table 6, read-out: MIC) | MIC (S. aureus; S. aureus, unnamed strain (5th S. aureus line), Table 1, read-out: MIC) | MIC (E. coli; E. coli Juhl A15119, Table 6, read-out: MIC) | MIC (K. pneumoniae; K. pneumoniae A9977, Table 6) | MIC (P. vulgaris; P. vulgaris A9539, Table 6) | MIC (P. vulgaris; Proteus vulgaris, P. vulgaris, Table 1, read-out: MIC) | MIC (P. aeruginosa; Pseudomonas aeruginosa, P. aeruginosa (6th line), Table 1, read-out: MIC)
6.3 µg/mL: MIC (S. aureus; S. aureus Smith (2nd line), Table 1, read-out: MIC) | MIC (S. aureus; S. aureus Smith A20239, Table 6, read-out: MIC) | MIC (S. aureus; S. aureus Smith A20240, Table 6, read-out: MIC) | MIC (E. coli; E. coli A20520, Table 6, read-out: MIC) | MIC (E. coli; E. coli, unnamed strain (6th E. coli line), Table 1, read-out: MIC) | MIC (E. coli; E. coli, unnamed strain (9th E. coli line), Table 1, read-out: MIC) | MIC (K. pneumoniae; K. pneumoniae, Table 1) | MIC (S. marcescens; S. marcescens A20019, Table 6) | MIC (S. marcescens; Serratia marcescens, S. marcescens, Table 1, read-out: MIC)
85 mg/kg: ED50 (Ps. aeruginosa A9843; subcutaneous injection in mice, Ps. aeruginosa, Table 4, read-out: Median Curative Dose (PD50))
130 mg/kg: PD50 (Ps. aeruginosa A9843; mice, P. aerug. A9843 infection, Table 5)
140 mg/kg: ED50 (Ps. aeruginosa A9843; mice, P. aerug. A9843 infection, Table 5, read-out: PD50)
0.8 µg/mL: MIC (E. coli; E. coli A9844, Table 6, read-out: MIC) | MIC (E. coli; E. coli NIHJ, Table 1, read-out: MIC) | MIC (E. coli; E. coli NIHJ, Table 6, read-out: MIC) | MIC (E. coli; E. coli, unnamed strain (3rd E. coli line), Table 1) | MIC (P. mirabilis; P. mirabilis A9900, Table 6) | MIC (P. mirabilis; Proteus mirabilis, P. mirabilis, Table 1, read-out: MIC)
> 100 µg/mL: MIC (E. coli; E. coli A20366, Table 6, read-out: MIC) | MIC (E. coli; E. coli A20898, Table 6, read-out: MIC) | MIC (E. coli; E. coli, unnamed strain (5th E. coli line), Table 1, read-out: MIC) | MIC (E. coli; E. coli, unnamed strain (7th E. coli line), Table 1, read-out: MIC) | MIC (E. coli; E. coli, unnamed strain (8th E. coli line), Table 1, read-out: MIC) | MIC (E. cloacae; E. cloacae (2nd line), Table 1) | MIC (E. cloacae; E. cloacae A9657, Table 6) | MIC (P. morganii; Morganella morganii, P. morganii, Table 1, read-out: MIC) | MIC (P. morganii; P. morganii A9553, Table 6)
100 µg/mL: MIC (E. coli; E. coli A20732, Table 6, read-out: MIC) | MIC (P. aeruginosa; Pseudomonas aeruginosa, P. aeruginosa (4th line), Table 1, read-out: MIC) | MIC (P. aeruginosa; Pseudomonas aeruginosa, P. aeruginosa A20717, Table 6, read-out: MIC)
25 µg/mL: MIC (S. aureus; S. aureus, unnamed strain (4th S. aureus line), Table 1, read-out: MIC) | MIC (P. aeruginosa; Pseudomonas aeruginosa, P. aeruginosa (2nd line), Table 1, read-out: MIC) | MIC (P. aeruginosa; Pseudomonas aeruginosa, P. aeruginosa (3rd line), Table 1, read-out: MIC) | MIC (P. aeruginosa; Pseudomonas aeruginosa, P. aeruginosa A9843, Table 6, read-out: MIC) | MIC (P. aeruginosa; Pseudomonas aeruginosa, P. aeruginosa A9930, Table 6, read-out: MIC)
8.5 mg/kg: ED50 (E. coli Juhl; mice, E. coli Juhl infection, Table 5, read-out: PD50)
2.4 mg/kg: ED50 (S. aureus Smith)
